Measurements as given in patent publication EP2340832A1, “Morphinan-6-one compounds for the treatment or prevention of neurodegenerative diseases” (Universität Innsbruck, priority 2009, dated 2011).
Where two headings read alike, the source gives them in different places.

How the values were obtained:
δ receptor = target: T1, δ receptor (Rattus norvegicus, UniProt P33533); experiment: [35S]GTPγS functional assay, rat brain membranes, δ receptor; format: biochemical, Sprague-Dawley rat
T1 construct: Membrane fractions were prepared from Sprague-Dawley rat or guinea pig brains; from tissue; host or cells: Sprague-Dawley rat brain (without cerebella) membranes
Method: (§1) Membrane fractions were prepared from Sprague-Dawley rat or guinea pig brains as described above. To determine binding of [^35S]GTPyS, rat or guinea pig brain membranes (10 µg of protein) were incubated for 60 min at 30 °C in Tris-EGTA buffer (50 mM Tris-HCl buffer, 3 mM MgCl2, 1 mM EGTA, […], pH 7.4) containing 30 µM GDP, 0.05 nM [^35S]GTPyS and appropriate concentrations of the respective compounds according to the present invention in a final volume of 1 ml. The reaction was terminated by vacuum filtration through Whatman GF/B glass fibre filters. Filters were washed three times with ice-cold 50 mM Tris-HCI buffer (pH 7.4) and the bound radioactivity was measured by liquid scintillation counting (Beckman Coulter™ LS6500). Basal activity was determined by subtracting the non-specific binding (measured in the presence of 100 µM unlabelled GTPyS) from the total binding (measured in the absence of the compound).
(§2) Stimulation produced by the compound is given as percentage of the basal activity (given as 100%). Functional data, EC50 (nM; half maximal effective concentration) and maximal stimulation Emax (% stimulation over basal level; maximal effective concentration), were calculated by using nonlinear regression analysis and sigmoidal curve fitting GraphPad Prism (San Diego, CA, USA) program. The values are expressed as the mean ± S.E.M of at least 3 independent experiments, each performed in triplicate. Statistical analysis was carried out using SPSS software (SPSS Inc., Chicago, lL, USA) and the Student T-test was used to compare different assay conditions. A ρ value < 0.05 was considered statistically significant.

[1] = target: σ receptors labelled by [^3H]DTG (σ1 + σ2); experiment: Sigma receptor binding assay, [3H]DTG; conditions: read-out: IC50 ± SEM [^3H]DTG (σ1 + σ2); guinea pig brain membranes; compounds 1-5 tested up to 10 µM
Method: (§3) Filters were washed three times with 5 ml of ice-cold 10 mM Tris-HCI buffer (pH 8). The bound radioactivity was measured by liquid scintillation counting (Beckman Coulter™ LS6500). […] The values are expressed as the mean ± S.E.M of 2 - 4 independent experiments, each performed in duplicate.

K receptor = target: T2, K receptor (Cavia porcellus, UniProt P41144); format: biochemical, guinea pig
T2 construct: Membrane fractions were prepared from Sprague-Dawley rat or guinea pig brains; from tissue; host or cells: guinea pig brain (without cerebella) membranes

[2] = target: T3, σ receptors labelled by [^3H](+)-pentazocine (σ1) (Cavia porcellus, UniProt Q60492); experiment: Sigma receptor binding assay, [3H](+)-pentazocine; parameters: species or system guinea pig
T3 construct: from tissue; host or cells: guinea pig brain membranes
Method: as §3

[3] = system: frontal cortex synaptosomes; experiment: ACh release from synaptosomes (15 mM K+-evoked [3H]-ACh release, superfusion); format: cell-based, male Sprague Dawley rats; conditions: 15 mM K+
Method: Preparation of synaptosomes: synaptosomes were prepared from brain frontal cortex of male Sprague Dawley rats (4 months old). The frontal cortex was rapidly dissected on ice and homogenized in 40 volumes of 0.32 M sucrose buffered at pH 7.4 with 0.01 M sodium phosphate. The homogenate was centrifuged at 1,000 g for 5 min. The crude synaptosomal pellet was obtained by centrifugation of the supernatant at 15,000 g for 20 min and was resuspended in 5 ml basal medium (125 mM Nacl, 3 mM KCI, 1.2 mM MgS04, 1.2 mM CaCl2, 1.0 mM NaH2PO4, 22 mM NaHCO3 and 10 mM glucose) which had been gassed with 95% O2 - 5% CO2 at 37 °C, pH 7.2 - 7.4.
Superfusion protocol: The synaptosomal suspension was incubated with [^3H]-choline (0.03 µM, 17.5x10^6 Bq/g) for 15 min at 37 °C. Then, the suspension was diluted (1:8) and aliquots were applied on filters in a continuous superfusion system with parallel chambers maintained at 37 °C. The media used for superfusion were basal medium and 15 mM K^+-containing stimulation medium. Both media were supplemented with ACh (1 µM) to facilitate the effectiveness of an allosteric potentiating ligand at the nicotine receptor and with atropine (0.1 µM) to block M2 presynaptic receptors. Synaptosomes were superfused with basal medium for 30 min to reach a constant outflow of [^3H]-ACh. Under these experimental conditions, the radioactivity released consisted largely of newly synthesized [^3H]-ACh. The K^+-stimulated release of [^3H]-ACh was determined in 2 subsequently collected fractions: 6 min basal release (superfusion with basal medium) and 6 min K^+-evoked release (superfusion for 1.5 min with 15 mM K^+-containing medium followed by […] basal medium). The test compounds galantamine, 4 and 2 were present in the superfusion medium concomitantly with 15 mM K^+ (for 1.5 min). Basal release of [^3H]-ACh (continuous superfusion with basal medium) was determined by collection of a 6 min sample followed by four subsequent 2 min samples. Aliquots of samples were mixed with scintillation liquid and the radioactivity quantified with a scintillation counter. The radioactivity bound to the filters was also measured.
Statistical analysis: The amount of [^3H]-ACh released in each sample was calculated as fraction of total synaptosomal tritium at the start of the respective collection period (tritium in the sample / sum of tritium in the respective fractions and in the synaptosomes on the filter). K^+-evoked release was expressed as percentage of basal release rate. Each n=1 represents the mean of an experiment with one synaptosomal preparation in at least 3 superfusion chambers. Statistical significance of group variances was calculated by one way ANOVA followed by Bonferroni's test.

[4] = system: extracellular ACh concentration in the nucleus accumbens; conditions: for 0AUC120 min (% increase x min) Mean ± SEM: 0 to 120 min; for Increase in ACh release (Peak increase as % of basal output): nucleus accumbens
µ opioid receptor [5] = target: T4, µ opioid receptor (Rattus norvegicus, UniProt P33535); experiment: [35S]GTPγS functional assay, rat brain membranes, µ receptor; format: biochemical, Sprague-Dawley rat; parameters: Membrane fractions were prepared from Sprague-Dawley rat or guinea pig brains; from tissue; host or cells: Sprague-Dawley rat brain (without cerebella) membranes
Method: as §1, §2

µ opioid receptor [6] = target: T4, µ opioid receptor; experiment: Opioid receptor binding assay, [3H]DAMGO, rat brain membranes; parameters: Membrane fractions were prepared from Sprague-Dawley rat or guinea pig brains; from tissue; host or cells: Sprague-Dawley rat brain (without cerebella) membranes; species or system Sprague-Dawley rat
Method: (§4) Briefly, brains without cerebella were homogenised on ice in 5 volumes of ice-cold 50 mM Tris-HCI buffer (pH 7.4) and diluted in 30 volumes of the same buffer. After centrifugation at 40,000 x g for 20 min at 4°C, the pellets were resuspended in 30 volumes of Tris-HCI buffer and incubated at 37 °C for 30 min (rat brain) or for 10 min (guinea pig brain). The centrifugation step was repeated and the final pellets were resuspended in 5 volumes of 50 mM Tris-HCI buffer (pH 7.4) containing 0.32 M sucrose to give a protein concentration of 4 - 6 mg/ml. Protein concentration was determined by the method of Bradford using bovine serum albumin as standard.
(§5) Binding experiments were performed in 50 mM Tris-HCI buffer (pH 7.4) in a final volume of 1 ml containing 0.3 - 0.5 mg protein and different concentrations of the compounds. […] Guinea pig brain membranes were incubated with [^3H]U69,593 (30 min, 30 °C). Non-specific binding was determined in the presence of 10 µM unlabeled naloxone. […] Inhibition constant (Ki) values were calculated from competition binding curves using GraphPad Prism (San Diego, CA, USA) program. The values are expressed as the mean ± S.E.M of 2-4 independent experiments, each performed in duplicate.
(§6) The morphinan-6-one compounds of the present invention were evaluated in in vitro receptor binding assays for their interaction abilities with µ, δ and k opioid receptors. […] The affinities of the compounds at k opioid receptors were determined by displacement of [^3H]U69,593 using guinea pig brain membranes.

δ opioid receptors = target: T5, δ opioid receptors (Rattus norvegicus, UniProt P33533); experiment: Opioid receptor binding assay, [3H][Ile5,6]deltorphin II, rat brain membranes; parameters: species or system Sprague-Dawley rat
T5 construct: Membrane fractions were prepared from Sprague-Dawley rat or guinea pig brains; from tissue; host or cells: Sprague-Dawley rat brain (without cerebella) membranes
Method: as §4, §5, §6

k opioid receptors = target: T6, k opioid receptors (Cavia porcellus, UniProt P41144); experiment: Opioid receptor binding assay, [3H]U69,593, guinea pig brain membranes
T6 construct: Membrane fractions were prepared from Sprague-Dawley rat or guinea pig brains; from tissue; host or cells: guinea pig brain (without cerebella) membranes
Method: as §4, §5, §6

C57BL/6N female mice [7] = experiment: Object recognition task; conditions: normal mice, 0.03 µmol i.c.v.
C57BL/6N female mice [8] = experiment: T-maze continuous alternation; conditions: normal mice
[9] = target: T7, electric eel AChE (EC 3.1.1.7) (Electrophorus electricus, UniProt O42275); experiment: Spectrophotometric assay for AChE inhibitory activity (modified Ellman's method); format: biochemical; conditions: 96-well microplate, 1% DMSO; read-out: AChE inhibitory activity IC50
T7 construct: purchased Sigma-Aldrich, Germany
T7 sequence (O42275 24-633): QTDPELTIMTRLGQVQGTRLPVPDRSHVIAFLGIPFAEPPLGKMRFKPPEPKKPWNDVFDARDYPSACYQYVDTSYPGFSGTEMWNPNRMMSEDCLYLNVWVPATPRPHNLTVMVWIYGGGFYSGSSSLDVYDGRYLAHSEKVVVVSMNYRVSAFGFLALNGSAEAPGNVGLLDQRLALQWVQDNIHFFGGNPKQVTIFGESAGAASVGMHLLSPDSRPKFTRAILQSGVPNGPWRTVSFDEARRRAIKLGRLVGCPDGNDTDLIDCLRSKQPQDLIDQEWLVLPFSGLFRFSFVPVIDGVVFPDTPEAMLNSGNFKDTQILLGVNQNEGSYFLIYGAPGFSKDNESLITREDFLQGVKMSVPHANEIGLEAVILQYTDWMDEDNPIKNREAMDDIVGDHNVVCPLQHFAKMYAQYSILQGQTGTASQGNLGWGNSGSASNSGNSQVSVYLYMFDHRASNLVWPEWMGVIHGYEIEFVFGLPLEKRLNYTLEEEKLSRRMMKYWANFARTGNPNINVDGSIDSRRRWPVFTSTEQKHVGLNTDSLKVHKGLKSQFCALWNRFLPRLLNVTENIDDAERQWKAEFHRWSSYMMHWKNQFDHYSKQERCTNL

T4 sequence (P33535 whole entry): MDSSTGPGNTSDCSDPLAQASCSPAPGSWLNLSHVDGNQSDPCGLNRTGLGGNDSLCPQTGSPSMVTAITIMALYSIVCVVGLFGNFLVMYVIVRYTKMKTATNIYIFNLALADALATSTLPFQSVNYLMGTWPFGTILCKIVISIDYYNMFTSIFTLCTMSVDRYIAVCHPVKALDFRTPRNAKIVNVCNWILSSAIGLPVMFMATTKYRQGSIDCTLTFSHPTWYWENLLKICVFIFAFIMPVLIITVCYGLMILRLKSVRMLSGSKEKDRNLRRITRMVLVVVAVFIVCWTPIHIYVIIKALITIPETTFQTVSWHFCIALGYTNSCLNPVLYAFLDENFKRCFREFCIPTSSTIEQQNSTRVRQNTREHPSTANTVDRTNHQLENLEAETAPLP
T5 sequence (P33533 whole entry): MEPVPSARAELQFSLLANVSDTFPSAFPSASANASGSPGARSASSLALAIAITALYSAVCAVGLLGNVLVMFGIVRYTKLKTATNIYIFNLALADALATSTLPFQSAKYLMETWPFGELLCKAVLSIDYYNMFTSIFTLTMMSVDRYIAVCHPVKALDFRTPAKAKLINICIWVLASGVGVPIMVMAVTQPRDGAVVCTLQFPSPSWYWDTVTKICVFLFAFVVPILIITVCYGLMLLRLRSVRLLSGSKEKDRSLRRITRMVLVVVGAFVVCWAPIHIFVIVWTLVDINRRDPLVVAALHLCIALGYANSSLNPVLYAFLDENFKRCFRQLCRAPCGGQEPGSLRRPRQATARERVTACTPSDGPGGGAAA
T6 sequence (P41144 whole entry): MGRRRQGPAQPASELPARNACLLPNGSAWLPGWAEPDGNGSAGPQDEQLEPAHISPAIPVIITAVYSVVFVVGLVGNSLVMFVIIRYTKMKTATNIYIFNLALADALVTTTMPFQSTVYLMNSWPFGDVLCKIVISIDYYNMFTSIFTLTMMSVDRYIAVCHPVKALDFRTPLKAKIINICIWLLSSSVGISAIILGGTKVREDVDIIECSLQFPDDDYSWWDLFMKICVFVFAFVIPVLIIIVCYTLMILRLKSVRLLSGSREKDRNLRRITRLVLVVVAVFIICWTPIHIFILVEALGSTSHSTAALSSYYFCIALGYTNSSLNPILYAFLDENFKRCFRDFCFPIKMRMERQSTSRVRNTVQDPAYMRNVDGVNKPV
T3 sequence (Q60492 whole entry): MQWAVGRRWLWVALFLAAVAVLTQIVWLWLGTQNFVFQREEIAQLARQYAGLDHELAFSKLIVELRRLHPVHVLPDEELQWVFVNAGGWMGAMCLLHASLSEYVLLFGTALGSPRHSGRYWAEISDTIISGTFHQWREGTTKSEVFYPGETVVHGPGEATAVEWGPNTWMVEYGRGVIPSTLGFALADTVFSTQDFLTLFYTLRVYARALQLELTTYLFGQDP
T1 sequence (P33533 whole entry): as the sequence (P33533 whole entry) above
T2 sequence (P41144 whole entry): as the sequence (P41144 whole entry) above

C=CCN1C[C@H](C)N([C@H](c2ccc(C(=O)N(CC)CC)cc2)c2cccc(OC)c2)C[C@H]1C [SNC 80, reference compound]
Emax (δ receptor; data not shown, read-out: Emax (% of basal activity)): 137 ± 4%

C=CCN1CC[C@]2(C)c3cc(O)ccc3C[C@H]1[C@H]2C [(+)-SKF-10,047, reference compound]
IC50 [1]: 0.291 ± 0.014 µM

Oc1ccc2c3c1O[C@H]1c4[nH]c5c(c4C[C@@]4(O)[C@@H](C2)N(CC2CC2)CC[C@]314)C[C@@]1(O)[C@H]2Cc3ccc(O)c4c3[C@@]1(CCN2CC1CC1)[C@H]5O4 [Nor-BNI, reference compound]
effect on [35S]GTPγS binding stimulated by U69,593 (K receptor): highly effective in inhibiting

CCCN1CCC[C@H](c2cccc(O)c2)C1 [(+)-3-PPP, reference compound]
IC50 [2]: 0.0682 ± 0.0048 µM

Cc1ccccc1NC(=N)Nc1ccccc1C [DTG, reference compound]
IC50 [1]: 0.126 ± 0.005 µM

Oc1ccc2c3c1O[C@H]1c4[nH]c5ccccc5c4C[C@@]4(O)[C@@H](C2)N(CC2CC2)CC[C@]314 [naltrindole, reference compound]
effect on [35S]GTPγS binding stimulated by SNC 80 (δ receptor; compound 10 µM, SNC 80 10 µM): markedly decreased

COc1ccc2c3c1O[C@H]1C[C@@H](O)C=C[C@@]31CCN(C)C2 [Galantamine, galantamine, reference compound]
concentration of maximal effect on stimulation-evoked ACh release [3]: 1 µM | 0AUC120 min (% increase x min) Mean ± SEM ([4]; Dose 0.5 µmol i.c.v.): 642 ± 85 % increase x min | Increase in ACh release (Peak increase as % of basal output) ([4]; Dose 0.5 µmol i.c.v.): 118 ± 29 % | 0AUC120 min (% increase x min) Mean ± SEM ([4]; Dose 1 µmol i.c.v.): 1857 ± 173 % increase x min | Increase in ACh release (Peak increase as % of basal output) ([4]; Dose 1 µmol i.c.v.): 101 ± 42 %

COc1cccc2c1[C@]13CCN(CC4CC4)[C@H](C2)[C@]1(OC)CCC(=O)C3 [cyprodime, reference compound]
effect on [35S]GTPγS binding stimulated by DAMGO (µ opioid receptor [5]; compound 10 µM, DAMGO 10 µM, rat brain membranes): significantly decreased

Nc1c2c(nc3ccccc13)CCCC2 [Tacrine, tacrine, reference compound]
dose dependence of the increase in extracellular brain ACh ([4]; rat, in vivo): pronounced and dose-dependent increases

CC(C)=CCN1CCC2(C)c3cc(O)ccc3CC1C2C (racemic) [(±)Pentazocine, reference compound]
IC50 [1]: 0.0546 ± 0.0053 µM

O=CN1CC[C@]23CC(=O)CC[C@H]2[C@H]1CC1=C3C(=O)C=CC1=O [1,4-dione-N-formylmorphinan-6-one]
binding to opioid receptor µ (in words) (µ opioid receptor [6]): does not bind | binding to opioid receptor δ (in words) (δ opioid receptors): does not bind | binding to opioid receptor K (in words) (k opioid receptors): does not bind

CN1[C@@H]2C[C@@H](OC(=O)[C@H](CO)c3ccccc3)C[C@H]1[C@@H]1O[C@@H]12 [Scopolamine, scopolamine, reference compound]
object recognition, exploration ratio novel/familiar object (C57BL/6N female mice [7]): close to one | running time (C57BL/6N female mice [8]; 0.033 µmol): only a moderate increase | spontaneous alternation (C57BL/6N female mice [8]; 0.033 µmol): profound decrease | running time (C57BL/6N female mice [8]; dose series, bell-shaped curve, not shown): strong increase | spontaneous alternation (C57BL/6N female mice [8]; dose series, not shown): dose-dependent reduction

C=CCN1CC[C@]23CC(=O)CC[C@@]2(OC)[C@H]1Cc1cccc(OC)c13 [4,14-dimethoxy-N-allyl-morphinan-6-one]
function at the µ opioid receptor (µ opioid receptor [5]): antagonistic function

O=CN1CC[C@]23CC(=O)CC[C@H]2[C@H]1CC1=C3C(=O)C=CC1=O [Compound 2, 1,4-dione-N-formylmorphinan-6-one]
IC50 [1]: > 0.01 µM | Ki (µ opioid receptor [6]; [3H]DAMGO, rat brain membranes, read-out: Opioid binding affinities Ki µ receptor): > 10 µM | Ki (µ opioid receptor [6]; no specific binding, read-out: Ki, µ opioid receptor): > 10 µM | Ki (δ opioid receptors; [3H][Ile5,6]deltorphin II, rat brain membranes, read-out: Opioid binding affinities Ki δ receptor): > 10 µM | Ki (δ opioid receptors; no specific binding, read-out: Ki, δ opioid receptor): > 10 µM | IC50 [2]: > 10 µM | effect on ACh in the superfusate (in words) ([4]; 0.5 µmol i.c.v.): short increase in ACh concentration followed by a decrease | toxicity at higher doses ([4]; 1 µmol and above, i.c.v., anaesthetized rats): could not be tested because of toxicity | 0AUC120 min (% increase x min) Mean ± SEM ([4]; Dose 0.5 µmol i.c.v.): 98 ± 27 % increase x min | Increase in ACh release (Peak increase as % of basal output) ([4]; Dose 0.5 µmol i.c.v.): 57 ± 14 % | Ki (k opioid receptors; [3H]U69,593, guinea pig brain membranes, read-out: Opioid binding affinities Ki κ receptor): > 10 µM | Ki (k opioid receptors; no specific binding, read-out: Ki, k opioid receptor): > 10 µM | IC50 [9]: 12.7 µM

O=CN1CC[C@]23c4c5cccc4OC2C(=O)CC[C@H]3[C@H]1C5 (stereo partly drawn) [4,5-epoxy-N-formylmorphinan-6-one]
binding to opioid receptor µ (in words) (µ opioid receptor [6]): does not bind | binding to opioid receptor δ (in words) (δ opioid receptors): does not bind | binding to opioid receptor K (in words) (k opioid receptors): does not bind
